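Tested at 5 concentrations; 48 h exposure; 96-well plates; endpoints linearly interpolated, else capped at highest concentration. GI50 is the concentration that inhibits growth by half.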 The source made the active and inactive calls. Cut-off read from the data, not from the text of the source: active = GI50 up to about 1.1 µM and inactive = higher.
Columns and labels:
Experiment in all cases: inhibition of tumour cell growth, NCI panel, 48 h
KM12 = system: KM12
SK-MEL-5 = system: SK-MEL-5
OVCAR-3 = system: OVCAR-3
SK-OV-3 = system: SK-OV-3
SN12C = system: SN12C
UACC-62 = system: UACC-62
Hs-578T = system: Hs-578T
SNB-19 = system: SNB-19
NCI-H226 = system: NCI-H226
A549 = system: A549
LOX IMVI = system: LOX IMVI
SF-539 = system: SF-539
MDA-MB-231 = system: MDA-MB-231
MCF7 = system: MCF7
786-0 = system: 786-0
T47D = system: T47D
IGROV-1 = system: IGROV-1
MOLT-4 = system: MOLT-4
M14 = system: M14
COLO 205 = system: COLO 205

Measured: GI50

COC(=O)C1=C(O)C(C(=O)OC)[C@]2(O)[C@H](C(=O)OC)[C@H]1C[C@@H](c1c(Cl)cccc1Cl)[C@H]2C(=O)OC (stereo not given in full)
inactive: KM12 2.55 µM | SK-MEL-5 1.66 µM | OVCAR-3 2.77 µM | SK-OV-3 3.96 µM | SN12C 2.23 µM | UACC-62 2.02 µM | Hs-578T 3.35 µM | SNB-19 2.07 µM | NCI-H226 2.14 µM | A549 2.23 µM | LOX IMVI 1.87 µM | SF-539 1.93 µM | MDA-MB-231 2.96 µM | MCF7 3.24 µM | 786-0 1.73 µM | T47D 3.79 µM | IGROV-1 2.16 µM | MOLT-4 1.81 µM | M14 1.55 µM | COLO 205 2.07 µM

C=CCCCCCCCCCOC1C=CC(OC(C)=O)C(COC(C)=O)O1 (stereo not given)
inactive: KM12 26.9 µM | SK-MEL-5 31.6 µM | OVCAR-3 44.4 µM | SK-OV-3 > 100 µM | SN12C 42.8 µM | UACC-62 46.8 µM | Hs-578T 28.9 µM | SNB-19 > 100 µM | NCI-H226 > 100 µM | A549 55.7 µM | LOX IMVI 34.2 µM | SF-539 > 100 µM | MDA-MB-231 > 100 µM | MCF7 38.8 µM | 786-0 67.8 µM | T47D 77.3 µM | IGROV-1 27 µM | MOLT-4 24.5 µM | M14 30.1 µM | COLO 205 51.6 µM

COC1=CC(=O)C2=C(C1=O)[C@H]1CC[C@]3(C)C(=O)CC[C@H]3[C@@H]1CC2
inactive: KM12 36.8 µM | SK-MEL-5 18.5 µM | OVCAR-3 23.3 µM | SK-OV-3 > 100 µM | SN12C 21.4 µM | UACC-62 30.1 µM | Hs-578T 28.5 µM | SNB-19 > 100 µM | NCI-H226 22.1 µM | A549 45.3 µM | LOX IMVI 18.6 µM | SF-539 19.6 µM | MDA-MB-231 4 µM | MCF7 19 µM | 786-0 24.1 µM | T47D 22.8 µM | IGROV-1 21.4 µM | MOLT-4 4.31 µM | M14 30.4 µM | COLO 205 39.8 µM

CC(=O)C1=C(N=[N+]=[N-])c2cccc3cccc(c23)C1=O
inactive: KM12 21.1 µM | SK-MEL-5 18.7 µM | OVCAR-3 12.2 µM | SK-OV-3 24 µM | SN12C 16.1 µM | UACC-62 15.2 µM | Hs-578T 29.3 µM | SNB-19 30.1 µM | NCI-H226 24.7 µM | A549 24.5 µM | LOX IMVI 14.7 µM | SF-539 13.3 µM | MDA-MB-231 11.5 µM | MCF7 10.6 µM | 786-0 17.1 µM | T47D 15.8 µM | IGROV-1 16.1 µM | MOLT-4 7.19 µM | M14 12.7 µM | COLO 205 15.7 µM

O=C1CCSc2nc(-c3ccc4c(c3)OCO4)nn21
inactive: KM12 > 10 µM | SK-MEL-5 > 10 µM | OVCAR-3 > 10 µM | SK-OV-3 > 10 µM | SN12C > 10 µM | UACC-62 > 10 µM | Hs-578T > 10 µM | SNB-19 > 10 µM | NCI-H226 > 10 µM | A549 > 10 µM | LOX IMVI > 10 µM | SF-539 > 10 µM | MDA-MB-231 > 10 µM | MCF7 > 10 µM | 786-0 > 10 µM | T47D > 10 µM | IGROV-1 > 10 µM | MOLT-4 > 10 µM | M14 > 10 µM | COLO 205 > 10 µM

OCCCSCCO
inactive: KM12 > 100 µM | SK-MEL-5 > 100 µM | OVCAR-3 > 100 µM | SK-OV-3 > 100 µM | SN12C > 100 µM | UACC-62 > 100 µM | Hs-578T > 100 µM | SNB-19 > 100 µM | NCI-H226 > 100 µM | A549 > 100 µM | LOX IMVI > 100 µM | SF-539 > 100 µM | MDA-MB-231 > 100 µM | MCF7 > 100 µM | 786-0 > 100 µM | T47D > 100 µM | IGROV-1 > 100 µM | MOLT-4 > 100 µM | M14 > 100 µM | COLO 205 > 100 µM

CC(NC(=O)/C(=C/c1ccccc1)NC(=O)c1ccccc1)C(=O)O (stereo not given)
inactive: KM12 6.59 µM | SK-MEL-5 > 100 µM | OVCAR-3 > 100 µM | SK-OV-3 87.3 µM | SN12C 92.3 µM | UACC-62 57 µM | Hs-578T 88.3 µM | SNB-19 77.1 µM | NCI-H226 26.1 µM | A549 > 100 µM | LOX IMVI 25.2 µM | SF-539 20.6 µM | MDA-MB-231 36.5 µM | MCF7 54.2 µM | 786-0 39.5 µM | T47D 29.6 µM | IGROV-1 21.3 µM | MOLT-4 > 100 µM | M14 > 100 µM | COLO 205 > 100 µM

O=C(O)/C=C/C=C/c1ccc2c(c1)OCO2 [PIPERIC ACID]
inactive: KM12 > 100 µM | SK-MEL-5 94.4 µM | OVCAR-3 > 100 µM | SK-OV-3 > 100 µM | SN12C > 100 µM | UACC-62 > 100 µM | Hs-578T 82.6 µM | SNB-19 > 100 µM | NCI-H226 > 100 µM | A549 > 100 µM | LOX IMVI > 100 µM | SF-539 > 100 µM | MDA-MB-231 > 100 µM | MCF7 > 100 µM | 786-0 > 100 µM | T47D > 100 µM | IGROV-1 > 100 µM | MOLT-4 > 100 µM | M14 > 100 µM | COLO 205 > 100 µM

N=C(N)N/N=C/c1c(-c2ccc([N+](=O)[O-])cc2)nc2n1CCS2
inactive: KM12 4.84 µM | SK-MEL-5 16.1 µM | OVCAR-3 14.8 µM | SK-OV-3 20.3 µM | SN12C 7 µM | UACC-62 16.7 µM | Hs-578T 16.7 µM | SNB-19 3.54 µM | NCI-H226 20.3 µM | A549 17 µM | LOX IMVI 8.26 µM | SF-539 16.3 µM | MDA-MB-231 6.18 µM | MCF7 6.9 µM | 786-0 6.67 µM | T47D 5.13 µM | IGROV-1 17.4 µM | MOLT-4 3.24 µM | M14 14.5 µM | COLO 205 2.76 µM

Cc1ccc(I)cc1N=C=S
inactive: KM12 17.3 µM | SK-MEL-5 16.5 µM | OVCAR-3 31 µM | SK-OV-3 37.3 µM | SN12C 20.7 µM | UACC-62 17.3 µM | Hs-578T 29.9 µM | SNB-19 23.5 µM | NCI-H226 18.3 µM | A549 28.6 µM | LOX IMVI 22.2 µM | SF-539 18.8 µM | MDA-MB-231 28.2 µM | MCF7 21.2 µM | 786-0 23.6 µM | T47D 16.1 µM | IGROV-1 28.8 µM | MOLT-4 20.2 µM | M14 20.2 µM | COLO 205 18.2 µM

— ChEMBL document CHEMBL1201862, “PubChem BioAssay data set” (2004)
